# Patent US12173007B2, “Imidazopyridazine IL-17 inhibitor compounds” (Janssen Pharmaceutica NV, priority 2021, dated 2024)
# pIC50: −log10 of the molar value.
# How the values were obtained:
# [1] = molecular target: IL-17A(FLAG-Tagged): IL-17RA(His-Tagged) binding (Homo sapiens, UniProt Q16552, K93Q); experiment: IL-17A(FLAG-tagged):IL-17RA(His-tagged) binding disruption Eu-HTRF assay, Protocol 2; conditions: FLAG-IL-17A 1 nM; average if tested more than once
# From the text: IL-17A(FLAG-Tagged): IL-17RA(His-Tagged) Binding Disruption Eu-HTRF Assay
# An antibody directed against the FLAG tag of IL-17A (SEQ ID NO: 1) is labeled with the HTRF donor chromophore (Europium-cryptate). IL-17A is present as a dimer that is “locked into” this quaternary structure due to the formation of loop-spanning […] disulfide bridges. The construct of IL-17RA used in the assay excludes the […] portion of the receptor and is fused to a C-terminal 10×His tag (SEQ ID NO:2). An antibody directed against the His tag of the IL-17RA chimera is labeled with the HTRF acceptor chromophore (“D2”). The fluorescence-resonance energy transfer (FRET) depends on the vicinity of the donor chromophore to the acceptor, and interruption of the binding between the IL-17A and IL-17RA causes the reduction/loss of FRET. Therefore, this assay allows to evaluate the compound effect on the binding IL-17A and IL-17RA by monitoring the fluorescence intensity of donor vs acceptor. The assay was run using either Protocol 1 or Protocol 2 as described below.
# Protocol 2. 40 nl of 2-fold serial diluted compound solution for total 22 dilution points is added into each well of a 1536-well, white, low-volume, non-binding plate (Greiner #782904), then 2 μl of FLAG tagged IL-17A at 2×final concentration (1 nM) in solution of PBS+0.01% Triton-X100 is added to each well. The assay plate is briefly centrifuged then incubated for 1 h at rt. A mixed solution is prepared containing 2×5 nM 10HIS×IL-17RA, 2×2.5 nM Eu-anti-FLAG (CISBIO), 2×5 nM D2-anti-HIS (CISBIO) in PBS+0.01% Triton-X100+200 mM Potassium Fluoride (Sigma 60238) and 2 μl of mix is added to each well of the assay plate. The plate is briefly centrifuged then incubated for 2 h at rt. The HTRF intensities at the wavelength of donor (615 nm) and acceptor (665 nm) are measured using BMG Pherastar. The ratio between intensities at two wavelengths is calculated and plotted against the compound concentration and the data is fitted to a one-site competition model to yield IC50 of the compound.
# [2] = system: IL-17A-induced G-CSF production in human normal keratinocyte (NHK); experiment: NHK assay: IL-17A-induced G-CSF production in normal human keratinocytes; format: cell-based; conditions: 24 h, IL-17A 5 ng/mL, G-CSF by HTRF, average if tested more than once
# Procedure: IL-17A acts directly on keratinocytes through binding to dimeric receptor IL-17RA/RC and drives the production of a number of inflammatory mediators known to be elevated in psoriasis lesional tissue. IL-17A small molecule inhibitors that block the IL-17A to interact with IL-17R would inhibit the IL-17A signaling in its targeted cells such as keratinocytes. The compound functional activity is evaluated for its impact on IL-17A-induced G-CSF production in human normal keratinocyte (NHK).
# Adult normal human keratinocytes are cultured in keratinocyte growth medium (Lonza) in a flask till reaching ˜90% confluence, then cells are transferred to a 384-well plate at density of 3000-4000 cell/well. Recombinant human IL-17A (Gibco PHC9174) is pre-incubated with titrated compound or DMSO for 1 h at rt then added to the cell culture plate. The final concentration of IL-17A is 5 ng/mL and DMSO is 0.2%, in the culture containing 5% FBS. Cells are cultured/treated for 24 h at 37° C. Supernatants are collected and G-CSF production is measured through HTRF technology using Human G-CSF Kit (CisBio). G-CSF concentration was extrapolated from the standard curve and IC50 is determined using GraphPad Prism. Cell viability is also evaluated using CellTiter-Glo kit (Promega) and effect of compound on cell viability is compared to DMSO control.
# UniProt Q16552, sequence (Q16552 with tags, fused parts or gaps K93Q): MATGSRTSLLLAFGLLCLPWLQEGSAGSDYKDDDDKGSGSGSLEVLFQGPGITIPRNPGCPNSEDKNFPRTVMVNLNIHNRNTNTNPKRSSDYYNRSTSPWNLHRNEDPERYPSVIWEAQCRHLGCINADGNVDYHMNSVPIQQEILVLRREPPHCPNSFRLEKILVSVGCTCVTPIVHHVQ
SMILES,pIC50 [1],"pIC50 ([2]; Homo sapiens, Keratinocyte)",pIC50 [2]
"COc1nonc1C(=O)N[C@@H](CCC(C)(C)C(F)(F)F)c1cn2ncc(CN3C[C@H]4[C@@H](CNC3=O)C4(F)F)cc2n1 (relative stereo) [Example 117, N—((S)-1-(7-(((1R*,7S*)-8,8-Difluoro-4-oxo-3,5-diazabicyclo[5.1.0]octan-3-yl)methyl)imidazo[1,2-b]pyridazin-2-yl)-5,5,5-trifluoro-4,4-dimethylpentyl)-4-methoxy-1,2,5-oxadiazole-3-carboxamide]",> 7.30,> 7.30,
"CC(C)(CC[C@H](NC(=O)c1nonc1C1CC1)c1cn2ncc(CN3C[C@@H]4[C@H](CNC3=O)C4(F)F)cc2n1)C(F)(F)F (relative stereo) [Example 118, 4-Cyclopropyl-N—((S)-1-(7-(((1S*,7R*)-8,8-difluoro-4-oxo-3,5-diazabicyclo[5.1.0]octan-3-yl)methyl)imidazo[1,2-b]pyridazin-2-yl)-5,5,5-trifluoro-4,4-dimethylpentyl)-1,2,5-oxadiazole-3-carboxamide]",> 7.30,< 7.00,
"CC(C)(CC[C@H](NC(=O)c1nonc1C1CC1)c1cn2ncc(CN3C[C@H]4[C@@H](CNC3=O)C4(F)F)cc2n1)C(F)(F)F (relative stereo) [Example 119, 4-Cyclopropyl-N—((S)-1-(7-(((1R*,7S*)-8,8-difluoro-4-oxo-3,5-diazabicyclo[5.1.0]octan-3-yl)methyl)imidazo[1,2-b]pyridazin-2-yl)-5,5,5-trifluoro-4,4-dimethylpentyl)-1,2,5-oxadiazole-3-carboxamide]",> 7.30,> 7.30,
"Cc1nonc1C(=O)N[C@@H](CCC(C)(C)C(F)(F)F)c1cn2ncc(CN3C[C@@H]4[C@H](CNC3=O)C4(F)F)cc2n1 (relative stereo) [Example 120, N—((S)-1-(7-(((1S*,7R*)-8,8-Difluoro-4-oxo-3,5-diazabicyclo[5.1.0]octan-3-yl)methyl)imidazo[1,2-b]pyridazin-2-yl)-5,5,5-trifluoro-4,4-dimethylpentyl)-4-methyl-1,2,5-oxadiazole-3-carboxamide]",< 7.00,< 7.00,
"Cc1nonc1C(=O)N[C@@H](CCC(C)(C)C(F)(F)F)c1cn2ncc(CN3C[C@H]4[C@@H](CNC3=O)C4(F)F)cc2n1 (relative stereo) [Example 121, N—((S)-1-(7-(((1R*,7S*)-8,8-Difluoro-4-oxo-3,5-diazabicyclo[5.1.0]octan-3-yl)methyl)imidazo[1,2-b]pyridazin-2-yl)-5,5,5-trifluoro-4,4-dimethylpentyl)-4-methyl-1,2,5-oxadiazole-3-carboxamide]",> 7.30,> 7.30,
"COC[C@H](c1cnn2cc([C@H](CCC(C)(C)C(C)(F)F)NC(=O)c3nonc3C)nc2c1)N1CC(F)(F)CNC1=O (relative stereo) [Example 133, N—((S*)-1-(7-((S)-1-(5,5-Difluoro-2-oxotetrahydropyrimidin-1(2H)-yl)-2-methoxyethyl)imidazo[1,2-b]pyridazin-2-yl)-5,5-difluoro-4,4-dimethylhexyl)-4-methyl-1,2,5-oxadiazole-3-carboxamide]",> 7.30,> 7.30,
"[2H]C1([2H])NC(=O)N([C@H](COC2CC2)c2cnn3cc([C@@H](NC(=O)c4nonc4C)C4CCC(F)(F)CC4)nc3c2)C([2H])([2H])C1(F)F (single isomer, unassigned) [Example 40]",> 7.30,> 7.30,
"COC[C@H](c1cnn2cc(C(CCC(C)(C)C(F)(F)F)NC(=O)c3nonc3C)nc2c1)N1CC(F)(F)CNC1=O (single isomer, unassigned) [Example 45, N—((S*)-1-(7-((S)-1-(5,5-Difluoro-2-oxotetrahydropyrimidin-1(2H)-yl)-2-methoxyethyl)imidazo [1,2-b]pyridazin-2-yl)-5,5,5-trifluoro-4,4-dimethylpentyl)-4-methyl-1,2,5-oxadiazole-3-carboxamide]",> 7.30,> 7.30,
"Cc1nonc1C(=O)N[C@H](c1cn2ncc(C(C3CCOCC3)N3CC(F)(F)CNC3=O)cc2n1)C1CCC(F)(F)CC1 (single isomer, unassigned) [Example 59, N—((S)-(7-((R*)-(5,5-Difluoro-2-oxotetrahydropyrimidin-1(2H)-yl)(tetrahydro-2H-pyran-4-yl)methyl)imidazo[1,2-b]pyridazin-2-yl)(4,4-difluorocyclohexyl)methyl)-4-methyl-1,2,5-oxadiazole-3-carboxamide]",> 7.30,> 7.30,
"COC[C@H](c1cnn2cc(C(CC(C)(C)C(C)(F)F)NC(=O)c3nonc3C3CC3)nc2c1)N1CC(F)(F)CNC1=O (single isomer, unassigned) [Example 68, 4-Cyclopropyl-N—((S*)-1-(7-((S)-1-(5,5-difluoro-2-oxotetrahydropyrimidin-1(2H)-yl)-2-methoxyethyl)imidazo[1,2-b]pyridazin-2-yl)-4,4-difluoro-3,3-dimethylpentyl)-1,2,5-oxadiazole-3-carboxamide]",> 7.30,> 7.30,
"COC[C@H](c1cnn2cc(C(CCC3(C(F)(F)F)CC3)NC(=O)c3nonc3C)nc2c1)N1CC(F)(F)CNC1=O (single isomer, unassigned) [Example 125, N—((R*)-1-(7-((S)-1-(5,5-Difluoro-2-oxotetrahydropyrimidin-1(2H)-yl)-2-methoxyethyl)imidazo[1,2-b]pyridazin-2-yl)-3-(1-(trifluoromethyl)cyclopropyl)propyl)-4-methyl-1,2,5-oxadiazole-3-carboxamide]",< 7.00,< 7.00,
"COC[C@H](c1cnn2cc(C(CCC3(C(F)(F)F)CC3)NC(=O)c3nonc3C)nc2c1)N1CC(F)(F)CNC1=O (single isomer, unassigned) [Example 126, N—((S*)-1-(7-((S)-1-(5,5-Difluoro-2-oxotetrahydropyrimidin-1(2H)-yl)-2-methoxyethyl)imidazo[1,2-b]pyridazin-2-yl)-3-(1-(trifluoromethyl)cyclopropyl)propyl)-4-methyl-1,2,5-oxadiazole-3-carboxamide]",> 7.30,,> 7.30
"COC[C@H](c1cnn2cc([C@@H](NC(=O)c3nonc3C3CC3(F)F)C3CCC(F)(F)CC3)nc2c1)N1CC(F)(F)CNC1=O (single isomer, unassigned) [Example 128, N—((S)-(7-((S)-1-(5,5-Difluoro-2-oxotetrahydropyrimidin-1(2H)-yl)-2-methoxyethyl)imidazo[1,2-b]pyridazin-2-yl)(4,4-difluorocyclohexyl)methyl)-4-((R*)-2,2-difluorocyclopropyl)-1,2,5-oxadiazole-3-carboxamide]",> 7.30,> 7.30,
"COC[C@H](c1cnn2cc([C@@H](NC(=O)c3nonc3C3CC3(F)F)C3CCC(F)(F)CC3)nc2c1)N1CC(F)(F)CNC1=O (single isomer, unassigned) [Example 129, N—((S)-(7-((S)-1-(5,5-Difluoro-2-oxotetrahydropyrimidin-1(2H)-yl)-2-methoxyethyl)imidazo[1,2-b]pyridazin-2-yl)(4,4-difluorocyclohexyl)methyl)-4-((S*)-2,2-difluorocyclopropyl)-1,2,5-oxadiazole-3-carboxamide]",> 7.30,,> 7.30
